Experimental data as given in patent US20240417342A1, “METHOD FOR PRODUCING GRANULAR COMPOSITION CONTAINING GLUTATHIONE” (KANEKA CORPORATION, priority 2022, published 2024).
Where two headings read alike, the source gives them in different places.

Experiment: Solubility in water at 20° C.
Type: physicochemical
Experimental: Specifically, the percentage can be expressed as the number of grams of the nitrogen-containing fertilizer component that is soluble in 100 ml of water at 20° C.

solubility in water at 20° C. [g/100 mL] | solubility in water at 20° C. (% = g per 100 ml water) [%] | Compound
4.2 | 4.2 | N[C@@H](Cc1c[nH]cn1)C(=O)O [L-histidine]
4.0 | 4.0 | CC[C@H](C)[C@H](N)C(=O)O [L-isoleucine]
0.5 | 0.5 | NC(=O)NC1NC(=O)NC1=O (stereo not drawn) [allantoin]
